pIC50: −log10 of the molar value. Read-outs that look alike come from different tables or passages of the source.
Experiments:
T-47D = experiment: In vitro cytotoxicity (PrestoBlue); settings: Homo sapiens, T47D
Procedure: (§2) Cells were seeded in 40 μl medium on 384 well plates by an automatic liquid handling machine (Hamilton StarLet) in a density of 2500 cells/well. Adherent cells were cultured for 24 h before the addition of the compounds, while drugs were added to non-adherent cells 2 h after cell seeding. The drugs were serially diluted, and dispensed in an additional 20 μl. Cells were incubated for an additional 72 h, cytotoxicity was assessed by the PrestoBlue viability reagent (Thermo Fisher). Experiments were repeated at least 3 times.

MCF7 = settings: MCF7, NCI-60 database, sulforhodamine B; read-out: Cytotoxic IC50; cited from earlier work
4T1-LUC mammary tumor = experiment: Mouse 4T1 breast cancer model; format: in vivo, BALB/c mice; settings: 1 mg/kg LiPyDau, 5 mg/kg DOX, day 12 and 24; endpoint day 33
Procedure: Mouse melanoma (B16), lung (Lewis lung carcinoma, LLC) and breast (4T1-LUC) cancer cell lines were used to establish allograft tumors for drug testing. 5×10^5 B16 or 2×10^5 LLC cells were inoculated subcutaneously in 200 μl serum-free culture media. 4T1-LUC tumors were established by injecting 1×10^6 cells in 20 μl serum-free culture media through the nipple directly to the breast tissue of 8 weeks old BALB/c mice on day 0). […] For the B16, LLC and 4T1-LUC tumor models 4, 6 and 6 mice were treated with LiPyDau while 4, 3 and 6 animals were in the saline treated groups, respectively.
Growth of 4T1-LUC tumor was monitored by bioluminescence imaging. Images were taken 10 minutes after tail vein injection of 150 mg/kg dose of D-luciferin into the mouse.

PC-3 = settings: PC-3, NCI-60 database, sulforhodamine B; read-out: Cytotoxic IC50; cited from earlier work
OVCAR-5 [1] = settings: OVCAR-5, NCI-60 database, sulforhodamine B; read-out: Cytotoxic IC50; cited from earlier work
HS 578T = experiment: In vitro cytotoxicity (PrestoBlue); settings: Homo sapiens
Procedure: as §2

SK-MEL-2 = settings: SK-MEL-2, NCI-60 database, sulforhodamine B; read-out: Cytotoxic IC50; cited from earlier work
BT-549 = experiment: In vitro cytotoxicity (PrestoBlue); settings: Homo sapiens
Procedure: as §2

RXF 393 = settings: RXF 393, NCI-60 database, sulforhodamine B; read-out: Cytotoxic IC50; cited from earlier work
MDA-MB-231 [2] = settings: MDA-MB-231, NCI-60 database, sulforhodamine B; read-out: Cytotoxic IC50; cited from earlier work
[3] = system: patient-derived lung adenocarcinoma xenografts; experiment: Patient-derived xenograft (PDX) model; format: in vivo, NSG mice; settings: single treatment; LiPyDau 0.5 mg/kg, DOX 2 mg/kg, paclitaxel 12 mg/kg; 7 days
Text: A piece from the tumor tissue was transplanted subcutaneously into the right flank and propagated in NOD.Cg-Prkdc^scid Il2rg^tm1Wjl/SzJ (NSG) mice for 7 months. After the xenografted tumor reached 1000 mm^3, tumor pieces were retransplanted subcutaneously into the right flank of 20 additional NSG mice, which were given a single treatment with various chemotherapeutics or LiPyDau. Every treatment group consists of 5 animals. After daily monitoring of the tumor volume for one week, the mice were sacrificed and the cytotoxicity of the treatments was investigated on tissue slices by image analysis.
For treatment, tumor pieces were engrafted subcutaneously.

HL-60(TB) = settings: NCI-60 database, sulforhodamine B, read-out: Cytotoxic IC50; cited from earlier work
MALME-3M [4] = settings: NCI-60 database, sulforhodamine B, read-out: Cytotoxic IC50; cited from earlier work
HCT-15 = settings: HCT-15, NCI-60 database, sulforhodamine B; read-out: Cytotoxic IC50; cited from earlier work
MES-SA/Dx5 = experiment: In vitro cytotoxicity; format: cell-based; settings: Homo sapiens
Text: (§1) Experiments were repeated at least 3 times.

MES-SA = experiment: In vitro cytotoxicity; format: cell-based; settings: Homo sapiens
Text: as §1

MES-SA xenografts = experiment: MES-SA xenograft tumors in mice; format: in vivo, NSG mice; settings: MES-SA derived tumors; DOX 2 mg/kg iv. once per week
Procedure: 2×10^6 cells from each cell line in 200 μl serum-free culture media DMEM were inoculated into NOD.Cg-Prkdc^scid Il2rg^tm1Wjl/SzJ (NSG) mice subcutaneously in the left flank and treatment was initiated when tumors reached 200 mm^3. Mice were treated with saline (n=3 per each cell lines). […] The size of the tumors was measured every second day with a digital caliper.

OVCAR-3 = settings: OVCAR-3, NCI-60 database, sulforhodamine B; read-out: Cytotoxic IC50; cited from earlier work
CCRF-CEM = settings: NCI-60 database, sulforhodamine B, read-out: Cytotoxic IC50; cited from earlier work
OVCAR-8 [5] = settings: OVCAR-8, NCI-60 database, sulforhodamine B; read-out: Cytotoxic IC50; cited from earlier work
MDA-MB-231 [6] = experiment: In vitro cytotoxicity (PrestoBlue); settings: Homo sapiens, MDA-MB-231, 72 h, read-out: Cytotoxic IC50
Procedure: as §2

NCI/ADR-RES = experiment: In vitro cytotoxicity (PrestoBlue); format: cell-based; settings: Homo sapiens, 72 h, read-out: Cytotoxic IC50
Text: as §1

Bx-PC-3 = experiment: In vitro cytotoxicity (PrestoBlue); format: cell-based; settings: Homo sapiens, BXPC-3; Bx-PC-3, 72 h; read-out: Cytotoxic IC50
Text: as §1

HOP-62 = experiment: In vitro cytotoxicity (PrestoBlue); format: cell-based; settings: Homo sapiens, HOP-62, 72 h; read-out: Cytotoxic IC50
Text: as §1

OVCAR-8 [7] = experiment: In vitro cytotoxicity (PrestoBlue); format: cell-based; settings: Homo sapiens, OVCAR-8, 72 h; read-out: Cytotoxic IC50
Text: as §1

HCC-2998 = experiment: In vitro cytotoxicity (PrestoBlue); format: cell-based; settings: Homo sapiens; HCC-2998, 72 h; read-out: Cytotoxic IC50
Text: as §1

MALME-3M [8] = experiment: In vitro cytotoxicity (PrestoBlue); format: cell-based; settings: Homo sapiens, 72 h, read-out: Cytotoxic IC50
Text: as §1

OVCAR-5 [9] = experiment: In vitro cytotoxicity (PrestoBlue); format: cell-based; settings: Homo sapiens, OVCAR-5, 72 h; read-out: Cytotoxic IC50
Text: as §1

KM12 = experiment: In vitro cytotoxicity (PrestoBlue); format: cell-based; settings: Homo sapiens, KM12, 72 h; read-out: Cytotoxic IC50
Text: as §1

Question: With `COc1cccc2c1C(=O)c1c(O)c3c(c(O)c1C2=O)C[C@@](O)(C(=O)CO)C[C@@H]3O[C@H]1C[C@H](N)[C@H](O)[C@H](C)O1` [DOX, doxorubicin] as the compound, how does the pIC50 (T-47D) read?
Answer: 7.52

Question: And the pIC50 (MCF7)?
Answer: 7.81

Question: And the “Tumor growth / tumor cell viability” value (4T1-LUC mammary tumor)?
Answer: small but significant effect on the growth of tumors

Question: What about the pIC50 (PC-3) of the same compound?
Answer: 6.61

Question: What about the pIC50 (OVCAR-5 [1]) of the same compound?
Answer: 6.23

Question: What about the pIC50 (HS 578T) of the same compound?
Answer: 7.10

Question: And the pIC50 (SK-MEL-2)?
Answer: 6.63

Question: And the pIC50 (BT-549; BT-549)?
Answer: 7.70

Question: What about the pIC50 (RXF 393) of the same compound?
Answer: 6.80

Question: What about the pIC50 (MDA-MB-231 [2]) of the same compound?
Answer: 6.42

Question: And the Tumor growth [3]?
Answer: failed to exert any effect on tumor growth

Question: What about the pIC50 (HL-60(TB)) of the same compound?
Answer: 7.20

Question: What about the pIC50 (MALME-3M [4]) of the same compound?
Answer: 7.28

Question: What about the pIC50 (HCT-15) of the same compound?
Answer: 5.92

Question: And the pIC50 (MES-SA/Dx5; MES-SA/Dx5, read-out: IC50)?
Answer: 5.54

Question: What about the pIC50 (MES-SA/Dx5; MES-SA/Dx5, presence of 1 μM tariquidar, read-out: IC50 + TQ) of the same compound?
Answer: 7.70

Question: And the pIC50 (MES-SA; presence of 1 μM tariquidar, read-out: IC50 + TQ)?
Answer: 7.70

Question: What about the pIC50 (MES-SA; read-out: IC50) of the same compound?
Answer: 7.14

Question: And the Overall survival (MES-SA xenografts)?
Answer: increased the overall survival

Question: What about the pIC50 (OVCAR-3) of the same compound?
Answer: 6.47

Question: What about the pIC50 (CCRF-CEM) of the same compound?
Answer: 7.43

Question: What about the pIC50 (OVCAR-8 [5]) of the same compound?
Answer: 6.89

Question: With `COc1cccc2c1C(=O)c1c(O)c3c(c(O)c1C2=O)C[C@@](O)(C(C)=O)C[C@@H]3O[C@H]1C[C@H]2[C@H](OC3CCCN32)[C@H](C)O1` (stereo partly drawn) [PyDau, 2-deamino-2-pyrrolino-daunorubicin] as the compound, how does the pIC50 (T-47D; 72 h, read-out: Cytotoxic IC50) read?
Answer: 8.37

Question: And the pIC50 (MDA-MB-231 [6])?
Answer: 8.96

Question: What about the pIC50 (HS 578T; 72 h, read-out: Cytotoxic IC50) of the same compound?
Answer: 8.75

Question: And the pIC50 (BT-549; BT-549, 72 h, read-out: Cytotoxic IC50)?
Answer: 8.33

Question: And the pIC50 (NCI/ADR-RES)?
Answer: 8.86

Question: What about the pIC50 (Bx-PC-3) of the same compound?
Answer: 8.33

Question: What about the pIC50 (HOP-62) of the same compound?
Answer: 8.38

Question: And the pIC50 (OVCAR-8 [7])?
Answer: 8.92

Question: What about the pIC50 (HCC-2998) of the same compound?
Answer: 8.09

Question: What about the pIC50 (MALME-3M [8]) of the same compound?
Answer: 8.74

Question: What about the pIC50 (OVCAR-5 [9]) of the same compound?
Answer: 8.71

Question: What about the pIC50 (KM12) of the same compound?
Answer: 8.85

Question: And the pIC50 (MES-SA/Dx5; MES-SA/Dx5)?
Answer: 8.60

Question: And the pIC50 (MES-SA)?
Answer: 8.87

From patent US20250032525A1 (priority 2021, published 2025)
